Measured values published in patent US20230148588A1, “METHODS, COMPOSITIONS, AND SYSTEMS FOR ENHANCING EX-VIVO ORGAN PERFUSION” (University Health Network, priority 2020, published 2023).
Entries after “also recorded” stand apart in the source; their conditions may differ. Blank lines part the entries; values can stand above or below the compound they belong to. Where a SMILES comes first, the peptide text is derived from it.

What was measured:
[1] = test system: human pulmonary microvascular endothelial cells (HPMEC); assay: Basic cellular function of cells exposed to Steen solution and its modifications (IncuCyte Live Cell Analysis); assay type: cell-based; conditions: for apoptosis / cell migration: GlutaMax added at 4 mM to Steen solution, vs Steen solution
Text: (§1) Methods: Human pulmonary microvascular endothelial cells (HPMEC) and human lung epithelial cells (BEAS-2B) were used to determine the effects of Steen solution components on basic cellular function. Cell confluence, apoptosis and migration were visualized and quantified by IncuCyte® Live Cell Analysis System in real-time. A simulated EVLP cell culture model was established by replacing regular culture medium with cold lung preservation solution and followed by “perfusion” with normothermic Steen solution or its modifications. Cell apoptosis was quantified. Porcine lung EVLP was performed using Steen solution with added nutrients.
(§2) The effects of glutamine in Steen solution on mitochondrial respiration and glycolytic function were examined using a Seahorse XFe analyzer.

[2] = test system: human lung epithelial cells (BEAS-2B); assay: as above; assay type: cell-based; conditions: for apoptosis / cell migration: GlutaMax added at 4 mM to Steen solution, vs Steen solution
Text: as §1, §2

HPMEC = assay: Simulated EVLP cell culture model (cold Perfadex preservation, then perfusion with Steen solution with and without GlutaMax); assay type: cell-based, human; conditions: for total GSH production: fluorometric assay kit; for apoptosis: GlutaMax 0.5 mM to 4 mM in Steen solution, after 6 h or 18 h cold preservation, simulated EVLP
Text: (§3) Methods: Human pulmonary microvascular endothelial cells (HPMEC) and human lung epithelial cells (BEAS-2B) were used to determine the effects of Steen solution components on basic cellular function. Cell confluence, apoptosis and migration were visualized and quantified by IncuCyte® Live Cell Analysis System in real-time. A simulated EVLP cell culture model was established by replacing regular culture medium with cold lung preservation solution and followed by “perfusion” with normothermic Steen solution or its modifications. Cell apoptosis was quantified. Porcine lung EVLP was performed using Steen solution with added nutrients. A cell culture model was developed that simulates hypothermic lung preservation and reperfusion and was used to “perfuse” cells with EVLP perfusate, as shown in FIG. 6A. Culture medium of confluent cells was replaced with 4° C. lung preservation solution (Perfadex®) for 6 h or 18 h, and then “perfused” with Steen solution with and without GlutaMax. […] Human lung endothelial and epithelial cells were subjected to simulated EVLP treated with Steen solution with and without GlutaMax. GSH concentration in cell culture was measured with a fluorometric assay kit from BioVision.

BEAS-2B = assay: as above; assay type: cell-based, human; conditions: for total GSH production: fluorometric assay kit; for apoptosis: GlutaMax 0.5 mM to 4 mM in Steen solution, after 6 h or 18 h cold preservation, simulated EVLP
Text: as §3

IL-8 = IL-8 production in simulated EVLP cell culture model; assay type: cell-based, human; conditions: prolonged CIT (18 h) and simulated EVLP (12 h)
Method: A cell culture model was developed that simulates hypothermic lung preservation and reperfusion and was used to “perfuse” cells with EVLP perfusate, as shown in FIG. 6A. Culture medium of confluent cells was replaced with 4° C. lung preservation solution (Perfadex®) for 6 h or 18 h, and then “perfused” with Steen solution with and without GlutaMax.

[3] = pH of Steen solution after addition of nutrients; assay type: physicochemical; conditions: nutrient added to Steen solution (GlutaMax at 4 mM; amino acids at clinically recommended concentrations)
Method: Amino acids are essential nutrients for cell proliferation. In rat lungs, the lack of amino acids and insulin in perfusate reduced protein synthesis, while vitamin C prolonged the viability and stability of perfused rat lungs by slowing the decline of mitochondrial activity. Therefore, clinically recommended concentrations of amino acids and/or vitamins were added in Steen solution to improve its performance.

pig lung = assay: Pig lung EVLP with GlutaMax-modified Steen solution; conditions: for lung function: compared with historical controls
Text: Methods: Human pulmonary microvascular endothelial cells (HPMEC) and human lung epithelial cells (BEAS-2B) were used to determine the effects of Steen solution components on basic cellular function. Cell confluence, apoptosis and migration were visualized and quantified by IncuCyte® Live Cell Analysis System in real-time. A simulated EVLP cell culture model was established by replacing regular culture medium with cold lung preservation solution and followed by “perfusion” with normothermic Steen solution or its modifications. Cell apoptosis was quantified. Porcine lung EVLP was performed using Steen solution with added nutrients. […] During the experiment, EVLP was extended as long as the dynamic lung compliance was greater than 15 ml/cmH2O. […] Pig lungs were preserved at 4° C. followed by EVLP. […] Lung function assessment: Perfusate was sampled regularly. PO2, PCO2, pH, Na^+, K^+, Ca^2+, Cl^−, glucose and lactate were determined via a blood gas analyzer (see FIG. 17; Table 3). Pulmonary function was monitored continuously and assessed every hour, including static and dynamic compliances, peak airway inspiratory pressure, pulmonary artery pressure and pulmonary vascular resistance (PVR). Lung tissue biopsies were collected before, during and at the end of EVLP. Lung wet-to-dry ratio was measured as an indicator of lung edema.

[4] = different concentrations of Albumin (1, 2, 4, 7%) and Dextran 40 (5, 25, 50 g/L) in Steen solution
[5] = CIT 6 h and EVLP 4 h, listed as GlutaMAX
[6] = pig lung EVLP, first 18 h, compared with historical control

Compound: Dextran 40
- cell confluence, apoptosis and migration [1, 4]: no major differences
- cell confluence, apoptosis and migration [2, 4]: no major differences

- pH [3]: maintained in the physiological range
Compound: C[C@H](N)C(=O)N[C@@H](CCC(N)=O)C(=O)O [GlutaMax, L-alanyl-L-glutamine] (H-Ala-Gln-OH)
- HSP70 production (protein expression in cell lysates) (HPMEC; CIT 6 h and EVLP 4 h): promoted HSP70 production; also recorded: enhanced HSP70 production
- total GSH production (HPMEC; CIT 6 h and EVLP 4 h): enhanced total GSH production
- total GSH production (HPMEC; [5]): enhanced Total GSH production
- apoptosis (HPMEC): reduced apoptosis
- apoptosis (HPMEC; listed as Glutamax): reduced apoptosis
- apoptosis (HPMEC; listed as gln): significantly reduced apoptosis
- HSP70 production (protein expression in cell lysates) (BEAS-2B; CIT 6 h and EVLP 4 h): promoted HSP70 production; also recorded: enhanced HSP70 production
- total GSH production (BEAS-2B; CIT 6 h and EVLP 4 h): enhanced total GSH production
- total GSH production (BEAS-2B; [5]): enhanced Total GSH production
- apoptosis (BEAS-2B): reduced apoptosis
- apoptosis (BEAS-2B; listed as Glutamax): reduced apoptosis
- apoptosis (BEAS-2B; listed as gln): significantly reduced apoptosis
- IL-8 production (IL-8): inhibited IL-8 production
- lung function (pig lung; pig lung EVLP): improved lung function
- lung function (pig lung; pig lung EVLP, listed as gln): stable lung function
- delta PO2 (pig lung; [6]): higher
- dynamic compliance (pig lung; [6]): higher
- peak airway pressure (pig lung; [6]): lower
- EVLP period (pig lung; pig lung EVLP, gln added to Steen solution): significantly extend
- EVLP duration reached (pig lung; pig lung, EVLP extended as long as dynamic lung compliance greater than 15 ml/cmH2O): 36 h
- apoptosis [1]: reduced apoptosis
- cell migration [1]: improved cell migration
- apoptosis ([1]; listed as L-alanyl-L-glutamine): significantly inhibited cell apoptosis
- cell migration ([1]; listed as L-alanyl-L-glutamine): improved cell migration
- apoptosis [2]: reduced apoptosis
- cell migration [2]: improved cell migration
- apoptosis ([2]; listed as L-alanyl-L-glutamine): significantly inhibited cell apoptosis
- cell migration ([2]; listed as L-alanyl-L-glutamine): improved cell migration
